From patent US20230059136A1, “THE COMPOUNDS AND COMPOSITIONS FOR TREATING CONDITIONS ASSOCIATED WITH NLRP ACTIVITY” (Novartis AG, priority 2018, published 2023)

What follows are molecules tested on IL-1β production in PMA-differentiated THP-1 cells (assay: IL-1β production in PMA-differentiated THP-1 cells stimulated with gramicidin (hTHP-1 assay containing 2% fetal bovine serum)). Conditions: Homo sapiens, THP-1, Table B1; 2% fetal bovine serum; cells printed as numeric bound; read-out: hTHP-1 IC50 (Average IC50 of compounds in hTHP-1 assay).
Format: cell-based, human
Description: Procedure 1: IL-1β Production in PMA-Differentiated THP-1 Cells Stimulated with Gramicidin.
THP-1 cells were purchased from the American Type Culture Collection and sub-cultured according to instructions from the supplier. Cells were cultured in complete RPMI 1640 (containing 10% heat inactivated FBS, penicillin (100 units/ml) and streptomycin (100 μg/ml)), and maintained in log phase prior to experimental setup. Prior to the experiment, compounds were dissolved in dimethyl sulfoxide (DMSO) to generate a 30 mM stock. The compound stock was first pre-diluted in DMSO to 3, 0.34, 0.042 and 0.0083 mM intermediate concentrations and subsequently spotted using Echo550 liquid handler into an empty 384-well assay plate to achieve desired final concentration (e.g. 100, 33, 11, 3.7, 1.2, 0.41, 0.14, 0.046, 0.015, 0.0051, 0.0017 μM). DMSO was backfilled in the plate to achieve a final DMSO assay concentration of 0.37%. The plate was then sealed and stored at room temperature until required.
THP-1 cells were treated with PMA (Phorbol 12-myristate 13-acetate) (20 ng/ml) for 16-18 hours. On the day of the experiment the media was removed and adherent cells were detached with trypsin for 5 minutes. Cells were then harvested, washed with complete RPMI 1640, spun down, and resuspended in RPMI 1640 (containing 2% heat inactivated FBS, penicillin (100 units/ml) and streptomycin (100 μg/ml). The cells were plated in the 384-well assay plate containing the spotted compounds at a density of 50,000 cells/well (final assay volume 50 μl). Cells were incubated with compounds for 1 hour and then stimulated with gramicidin (5 μM) (Enzo) for 2 hours. Plates were then centrifuged at 340 g for 5 min. Cell free supernatant (40 μL) was collected using a 96-channel PlateMaster (Gilson) and the production of IL-1β was evaluated by HTRF (cisbio). The plates were incubated for 18 h at 4° C. and read using the preset HTRF program (donor emission at 620 nm, acceptor emission at 668 nm) of the SpectraMax i3x spectrophotometer (Molecular Devices, software SoftMax 6). A vehicle only control and a dose titration of CRID3 (100-0.0017 μM) were run concurrently with each experiment.
Procedure 2: IL-1β Production in PMA-Differentiated THP-1 Cells Stimulated with Gramicidin.
THP-1 cells were purchased from the American Type Culture Collection and sub-cultured according to instructions from the supplier. Prior to experiments, cells were cultured in complete RPMI 1640 (containing 10% heat inactivated FBS, penicillin (100 units/ml) and streptomycin (100 μg/ml)), and maintained in log phase prior to experimental setup. Prior to the experiment THP-1 were treated with PMA (Phorbol 12-myristate 13-acetate) (20 ng/ml) for 16-18 hours. Compounds were dissolved in dimethyl sulfoxide (DMSO) to generate a 30 mM stock. On the day of the experiment the media was removed and adherent cells were detached with trypsin for 5 minutes. Cells were then harvested, washed with complete RPMI 1640, spun down, resuspended in RPMI 1640 (containing 2% heat inactivated FBS, penicillin (100 units/ml) and streptomycin (100 μg/ml). The cells were plated in a 384-well plate at a density of 50,000 cells/well (final assay volume 50 μl). Compounds were first dissolved in assay medium to obtain a 5× top concentration of 500 μM. 10 step dilutions (1:3) were then undertaken in assay medium containing 1.67% DMSO. 5× compound solutions were added to the culture medium to achieve desired final concentration (e.g. 100, 33, 11, 3.7, 1.2, 0.41, 0.14, 0.046, 0.015, 0.0051, 0.0017 μM). Final DMSO concentration was at 0.37%. Cells were incubated with compounds for 1 hour and then stimulated with gramicidin (5 μM) (Enzo) for 2 hours. Plates were then centrifuged at 340 g for 5 min. Cell free supernatant (40 μL) was collected using a 96-channel PlateMaster (Gilson) and the production of IL-1β was evaluated by HTRF (cisbio). A vehicle only control and a dose titration of CRID3 (100-0.0017 μM) were run concurrently with each experiment. […]

Row | IC50 [µM] | Molecule
1 | > 30 | CC(C)c1cc(F)cc(C(C)C)c1C(C)C(=O)N=S(N)(=O)c1cnc(C(C)(C)O)s1 (racemic) [Example 193, (S, S) and (S, R)-N-(amino (2-(2-hydroxypropan-2-yl)thiazol-5-yl)(oxo)-λ^6-sulfaneylidene)-2-(4-fluoro-2,6-diisopropylphenyl) propanamide]

Same assay, conditions: Homo sapiens, THP-1, Table B1; 2% fetal bovine serum; class symbols; read-out: hTHP-1 IC50 (Average IC50 of compounds in hTHP-1 assay)

Row | IC50 [µM] | Molecule
2 | 1 to 5 | CC(C)c1cc(F)cc(C(C)C)c1CC(=O)NS(=N)(=O)c1ccc(C(C)(C)O)cc1 (single isomer, unassigned) [Example 2]
3 | 0.2 to 1 | CC(C)c1cc(F)cc(C(C)C)c1CC(=O)NS(=N)(=O)c1ncc(C(C)(C)O)s1 (single isomer, unassigned) [Example 9]

Same assay, conditions: Homo sapiens, THP-1, Table B2; 2% fetal bovine serum; cells printed as numeric bound; read-out: hTHP-1 IC50 (Average IC50 of compounds in hTHP-1 assay)

Row | IC50 [µM] | Molecule
4 | > 30 | CNCc1ccc(S(N)(=O)=NC(=O)Cc2c(-c3ccccc3)ccc3c2CCC3)cc1 (racemic) [Example 380, (R) and (S)—N-(amino(4-((methylamino)methyl)phenyl)(oxo)-λ^6-sulfaneylidene)-2-(5-phenyl-2,3-dihydro-1H-inden-4-yl)acetamide]
5 | > 30 | COc1ccc(C(C)(C)O)cc1S(N)(=O)=NC(=O)Cc1c(C(C)C)cc(C#N)cc1C(C)C (racemic) [Example 388, (R) and (S)—N-(amino(5-(2-hydroxypropan-2-yl)-2-methoxyphenyl)(oxo)-λ^6-sulfaneylidene)-2-(4-cyano-2,6-diisopropylphenyl)acetamide]

Same assay, conditions: Homo sapiens, THP-1, Table B2; 2% fetal bovine serum; class symbols; read-out: hTHP-1 IC50 (Average IC50 of compounds in hTHP-1 assay)

Row | IC50 [µM] | Molecule
6 | 5 to 30 | CNCc1ccc(S(N)(=O)=NC(=O)Cc2c(-c3ccccc3)ccc3c2CCC3)cc1 (racemic) [Example 381, (R) and (S)—N-(amino(4-((methylamino)methyl)phenyl)(oxo)-λ^6-sulfaneylidene)-2-(5-phenyl-2,3-dihydro-1H-inden-4-yl)acetamide]
7 | 5 to 30 | COc1ccc(C(C)(C)O)cc1S(N)(=O)=NC(=O)Cc1c(C(C)C)cc(C#N)cc1C(C)C (racemic) [Example 387, (R) and (S)—N-(amino(5-(2-hydroxypropan-2-yl)-2-methoxyphenyl)(oxo)-λ^6-sulfaneylidene)-2-(4-cyano-2,6-diisopropylphenyl)acetamide]

Same assay, conditions: Table B1; 2% fetal bovine serum; class symbols; read-out: hTHP-1 IC50 (Average IC50 of compounds in hTHP-1 assay)

Row | Molecule | IC50 [µM]
8 | 2-(4-Fluoro-2,6-diisopropylphenyl)-N-(4-(2-hydroxypropan-2-yl)phenylsulfonimidoyl)acetamide [Example 1] | 5 to 30
9 | CC(C)c1cc(OC(F)F)cc(C(C)C)c1CC(=O)N=S(N)(=O)c1cnc(C(C)(C)O)s1 (single isomer, unassigned) [Example 48, (S)- or (R)-2-(4-(difluoromethoxy)-2,6-diisopropylphenyl)-N-(2-(2-hydroxypropan-2-yl)thiazol-5-ylsulfonimidoyl)acetamide] | 0.04 to 0.2
10 | CC(C)c1cc(OC(F)F)cc(C(C)C)c1CC(=O)N=S(N)(=O)c1cnc(C(C)(C)O)s1 (single isomer, unassigned) [Example 49, (R)- or (S)-2-(4-(difluoromethoxy)-2,6-diisopropylphenyl)-N-(2-(2-hydroxypropan-2-yl)thiazol-5-ylsulfonimidoyl)acetamide] | 5 to 30

The remaining lines, values ahead:

Row | IC50 [µM] | Molecule
11 | 0.04 to 0.2 | CC(C)c1cc(C#N)c(F)c(C(C)C)c1CC(=O)N=S(N)(=O)c1ncc(C(C)(C)O)s1 (single isomer, unassigned) [Example 42]
12 | 1 to 5 | CC(C)c1cc(C#N)c(F)c(C(C)C)c1CC(=O)N=S(N)(=O)c1ncc(C(C)(C)O)s1 (single isomer, unassigned) [Example 43]
13 | 0.04 to 0.2 | CC(C)c1cc(C#N)c(F)c(C(C)C)c1CC(=O)N=S(N)(=O)c1sc(C(C)(C)O)cc1F (single isomer, unassigned) [Example 44, (S)- or (R)-2-(4-cyano-3-fluoro-2,6-diisopropylphenyl)-N-(3-fluoro-5-(2-hydroxypropan-2-yl)thiophen-2-ylsulfonimidoyl)acetamide]
14 | 1 to 5 | CC(C)c1cc(C#N)c(F)c(C(C)C)c1CC(=O)N=S(N)(=O)c1sc(C(C)(C)O)cc1F (single isomer, unassigned) [Example 45, (R)- or (S)-2-(4-cyano-3-fluoro-2,6-diisopropylphenyl)-N-(3-fluoro-5-(2-hydroxypropan-2-yl)thiophen-2-ylsulfonimidoyl)acetamide]
15 | 0.008 to 0.04 | CC(C)c1cc(F)cc(C(C)C)c1CC(=O)N=S(N)(=O)c1sc(C(C)(C)O)cc1F (single isomer, unassigned) [Example 50, (S)- or (R)-2-(4-fluoro-2,6-diisopropylphenyl)-N-(3-fluoro-5-(2-hydroxypropan-2-yl)thiophen-2-ylsulfonimidoyl)acetamide]

Same assay, conditions: Table B2; 2% fetal bovine serum; class symbols; read-out: hTHP-1 IC50 (Average IC50 of compounds in hTHP-1 assay)

Row | Molecule | IC50 [µM]
16 | CC(C)c1cc(C#N)c(F)c(C(C)C)c1CC(=O)N=S(N)(=O)c1sc(C(C)(C)O)nc1CO (racemic) [Example 352, (S) and (R)—N-(amino(4-(hydroxymethyl)-2-(2-hydroxypropan-2-yl)thiazol-5-yl)(oxo)-λ^6-sulfaneylidene)-2-(4-cyano-3-fluoro-2,6-diisopropylphenyl)acetamide] | 0.2 to 1
17 | CC(C)c1cc(C#N)c(F)c(C(C)C)c1CC(=O)N=S(N)(=O)c1sc(C(C)(C)O)nc1CO (racemic) [Example 353, (S) and (R)—N-(amino(4-(hydroxymethyl)-2-(2-hydroxypropan-2-yl)thiazol-5-yl)(oxo)-λ^6-sulfaneylidene)-2-(4-cyano-3-fluoro-2,6-diisopropylphenyl)acetamide] | 5 to 30
18 | CC(C)c1cc(F)cc(C(C)C)c1CC(=O)N=S(N)(=O)c1sc(C(C)(C)O)nc1CO (racemic) [Example 356, (R) and (S)—N-(amino(4-(hydroxymethyl)-2-(2-hydroxypropan-2-yl)thiazol-5-yl)(oxo)-λ^6-sulfaneylidene)-2-(4-fluoro-2,6-diisopropylphenyl)acetamide] | 0.2 to 1
19 | CC(C)c1cc(F)cc(C(C)C)c1CC(=O)N=S(N)(=O)c1sc(C(C)(C)O)nc1CO (racemic) [Example 357, (R) and (S)—N-(amino(4-(hydroxymethyl)-2-(2-hydroxypropan-2-yl)thiazol-5-yl)(oxo)-λ^6-sulfaneylidene)-2-(4-fluoro-2,6-diisopropylphenyl)acetamide] | 5 to 30

The remaining lines, values ahead:

Row | IC50 [µM] | Molecule
20 | 0.2 to 1 | CC(C)c1cc2c(c(C(C)C)c1CC(=O)N=S(N)(=O)c1ccn(CCO)n1)OC(F)(F)O2 (racemic) [Example 348, (R) and (S)—N-(amino(1-(2-hydroxyethyl)-1H-pyrazol-3-yl)(oxo)-λ^6-sulfaneylidene)-2-(2,2-difluoro-4,6-diisopropylbenzo[d][1,3]dioxol-5-yl)acetamide]
21 | 5 to 30 | CC(C)c1cc2c(c(C(C)C)c1CC(=O)N=S(N)(=O)c1ccn(CCO)n1)OC(F)(F)O2 (racemic) [Example 349, (R) and (S)—N-(amino(1-(2-hydroxyethyl)-1H-pyrazol-3-yl)(oxo)-λ^6-sulfaneylidene)-2-(2,2-difluoro-4,6-diisopropylbenzo[d][1,3]dioxol-5-yl)acetamide]
